Active and inactive are the calls of the source.
Legend:
[1] = target: Sphingosine 1-phosphate receptor 2 (Homo sapiens, UniProt O95136); assay: Dose Response Cell Based Assay for Agonists of the S1P2 Receptor of Purchased Analogues. [Related pubchem assays: 729, 843, 854, 736 ]; assay type: functional
[2] = target: FAD-linked sulfhydryl oxidase ALR (Homo sapiens, UniProt P55789); assay: inhibitors of human ALR sulfhydryl oxidase, dose response, biochemical, H2O2 detection, luminescence, cherry-pick (AID 493248)
[3] = target: T1, Estrogen receptor beta (Homo sapiens, UniProt Q92731);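 note: recombinant ER-beta bound to coactivator SRC1 peptide in presence of estradiol agonist; inhibitors block coactivator peptide binding and lower the FRET signal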
[4] = target: Estrogen receptor (Homo sapiens, UniProt P03372);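 note: potency for inhibiting coactivator peptide recruitment to the receptor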
[5] = cytotoxicity in KRAS-transformed pancreatic duct cells, primary screen, cell-based, fluorescence, HTS (AID 431); assay type: functional; conditions: Homo sapiens;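 note: cell line used: HPDE-C7K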
[6] = target: T1, Estrogen receptor beta; assay: ERβ–SRC-3 coactivator interaction inhibitors, confirmation, orthogonal assay, biochemical, ELISA, streptavidin-HRP readout (AID 1060)
[7] = cytotoxicity in HPDE-C7 cells, cell-based, fluorescence, HTS (AID 430); assay type: functional; conditions: Homo sapiens
[8] = target: Neuropeptide Y receptor type 2 (Homo sapiens, UniProt P49146); assay: NPY-Y2 antagonist potency, selectivity check, dose response, counter-screen for NPY-Y1 antagonist project, cell-based (AID 1278); assay type: functional
[9] = target: Genome polyprotein (dengue virus type 2, UniProt P29990); assay: Dengue-2 NS5 methyltransferase inhibitors, primary screen, biochemical, confirmation dose response (AID 588689); assay type: functional
[10] = target: Neuropeptide Y receptor type 1 (Homo sapiens, UniProt P25929); assay: NPY-Y1 receptor antagonist potency, dose response, cell-based (AID 1277); assay type: functional
Neuropeptide Y receptor type 1, sequence (P25929 whole entry): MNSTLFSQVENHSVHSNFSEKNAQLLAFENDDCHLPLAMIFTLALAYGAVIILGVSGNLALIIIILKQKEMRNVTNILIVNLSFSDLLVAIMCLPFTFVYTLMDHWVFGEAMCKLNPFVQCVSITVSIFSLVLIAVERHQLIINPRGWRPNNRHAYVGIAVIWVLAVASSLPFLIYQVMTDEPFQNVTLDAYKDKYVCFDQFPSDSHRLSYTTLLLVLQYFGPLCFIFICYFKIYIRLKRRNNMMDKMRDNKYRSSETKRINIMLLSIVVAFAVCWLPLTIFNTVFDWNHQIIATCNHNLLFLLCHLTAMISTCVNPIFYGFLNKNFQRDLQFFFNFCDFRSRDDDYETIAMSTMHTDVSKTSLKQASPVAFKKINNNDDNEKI

T1 sequence (Q92731 whole entry): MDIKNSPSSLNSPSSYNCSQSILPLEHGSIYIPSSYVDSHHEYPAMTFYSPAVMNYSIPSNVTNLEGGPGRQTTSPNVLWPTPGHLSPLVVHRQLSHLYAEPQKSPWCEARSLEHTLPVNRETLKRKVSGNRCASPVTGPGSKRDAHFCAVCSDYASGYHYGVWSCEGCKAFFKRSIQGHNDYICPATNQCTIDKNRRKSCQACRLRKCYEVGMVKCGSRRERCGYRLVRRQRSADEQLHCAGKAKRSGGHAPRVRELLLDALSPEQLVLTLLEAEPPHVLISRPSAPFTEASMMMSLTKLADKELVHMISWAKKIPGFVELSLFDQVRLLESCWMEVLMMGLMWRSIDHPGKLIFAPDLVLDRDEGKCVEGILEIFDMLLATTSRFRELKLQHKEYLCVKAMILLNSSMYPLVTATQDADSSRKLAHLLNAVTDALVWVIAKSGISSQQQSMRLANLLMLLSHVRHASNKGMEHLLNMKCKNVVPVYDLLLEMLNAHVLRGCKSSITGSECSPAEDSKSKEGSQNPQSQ
Genome polyprotein, sequence (P29990 2492-3391 limits assumed): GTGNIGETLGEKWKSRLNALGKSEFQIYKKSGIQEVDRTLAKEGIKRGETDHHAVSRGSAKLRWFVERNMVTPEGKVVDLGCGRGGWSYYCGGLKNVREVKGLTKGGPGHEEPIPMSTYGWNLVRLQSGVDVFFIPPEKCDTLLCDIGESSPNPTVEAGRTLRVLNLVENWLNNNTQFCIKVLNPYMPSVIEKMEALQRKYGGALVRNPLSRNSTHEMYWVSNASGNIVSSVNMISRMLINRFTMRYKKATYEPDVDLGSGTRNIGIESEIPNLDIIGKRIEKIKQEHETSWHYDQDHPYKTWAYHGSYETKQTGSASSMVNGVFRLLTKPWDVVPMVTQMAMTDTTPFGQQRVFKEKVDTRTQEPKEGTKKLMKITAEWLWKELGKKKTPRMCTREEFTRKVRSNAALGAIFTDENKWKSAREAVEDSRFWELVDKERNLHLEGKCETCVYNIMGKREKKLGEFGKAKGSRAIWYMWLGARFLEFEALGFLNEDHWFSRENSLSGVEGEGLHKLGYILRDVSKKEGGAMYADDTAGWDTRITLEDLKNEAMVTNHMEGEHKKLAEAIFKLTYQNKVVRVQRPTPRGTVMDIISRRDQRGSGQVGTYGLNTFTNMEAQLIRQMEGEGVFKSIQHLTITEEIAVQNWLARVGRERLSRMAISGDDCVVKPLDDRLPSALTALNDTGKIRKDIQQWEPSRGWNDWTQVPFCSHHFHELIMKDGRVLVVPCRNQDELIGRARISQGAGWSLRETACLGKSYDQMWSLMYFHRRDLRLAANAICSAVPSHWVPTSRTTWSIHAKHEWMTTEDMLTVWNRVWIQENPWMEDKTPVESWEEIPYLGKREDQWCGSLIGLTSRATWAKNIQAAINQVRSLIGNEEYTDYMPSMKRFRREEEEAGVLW
Neuropeptide Y receptor type 2, sequence (P49146 whole entry): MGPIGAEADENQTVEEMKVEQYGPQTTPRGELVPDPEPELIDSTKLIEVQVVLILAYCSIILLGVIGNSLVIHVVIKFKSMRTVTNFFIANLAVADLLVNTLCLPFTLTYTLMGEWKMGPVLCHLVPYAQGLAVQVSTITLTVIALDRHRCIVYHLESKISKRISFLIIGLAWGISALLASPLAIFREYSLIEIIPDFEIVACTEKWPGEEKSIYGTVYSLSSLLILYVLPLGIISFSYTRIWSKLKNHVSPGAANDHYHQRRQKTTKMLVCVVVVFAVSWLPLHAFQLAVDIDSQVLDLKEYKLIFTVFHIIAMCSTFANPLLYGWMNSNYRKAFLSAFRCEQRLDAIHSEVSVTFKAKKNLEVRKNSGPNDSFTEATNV
Estrogen receptor, sequence (P03372 whole entry): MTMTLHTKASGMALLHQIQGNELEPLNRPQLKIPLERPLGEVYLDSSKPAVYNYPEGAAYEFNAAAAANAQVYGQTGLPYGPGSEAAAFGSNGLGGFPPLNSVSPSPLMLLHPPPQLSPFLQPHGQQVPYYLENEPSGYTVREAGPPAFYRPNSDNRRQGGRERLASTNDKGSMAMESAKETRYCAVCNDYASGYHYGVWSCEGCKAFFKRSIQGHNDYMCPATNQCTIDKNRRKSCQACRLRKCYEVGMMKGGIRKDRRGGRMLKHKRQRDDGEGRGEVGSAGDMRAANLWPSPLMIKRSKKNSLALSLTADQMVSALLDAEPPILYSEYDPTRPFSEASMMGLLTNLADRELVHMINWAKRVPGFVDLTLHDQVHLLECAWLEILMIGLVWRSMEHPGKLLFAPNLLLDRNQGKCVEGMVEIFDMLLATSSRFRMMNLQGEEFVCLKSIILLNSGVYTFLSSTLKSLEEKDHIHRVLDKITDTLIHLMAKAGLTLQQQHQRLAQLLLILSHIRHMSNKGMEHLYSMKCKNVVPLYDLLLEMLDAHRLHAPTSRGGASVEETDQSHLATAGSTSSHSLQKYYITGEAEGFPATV
Sphingosine 1-phosphate receptor 2, sequence (O95136 whole entry): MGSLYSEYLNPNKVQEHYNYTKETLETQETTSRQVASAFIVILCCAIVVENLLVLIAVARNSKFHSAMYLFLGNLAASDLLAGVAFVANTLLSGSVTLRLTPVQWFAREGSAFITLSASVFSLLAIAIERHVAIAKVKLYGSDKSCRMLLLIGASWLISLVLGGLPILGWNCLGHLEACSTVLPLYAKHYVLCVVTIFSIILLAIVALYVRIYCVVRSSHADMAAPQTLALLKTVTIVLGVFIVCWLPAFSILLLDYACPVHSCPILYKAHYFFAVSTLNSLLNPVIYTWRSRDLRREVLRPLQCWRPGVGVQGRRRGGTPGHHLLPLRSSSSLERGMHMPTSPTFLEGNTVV
FAD-linked sulfhydryl oxidase ALR, sequence (P55789 whole entry): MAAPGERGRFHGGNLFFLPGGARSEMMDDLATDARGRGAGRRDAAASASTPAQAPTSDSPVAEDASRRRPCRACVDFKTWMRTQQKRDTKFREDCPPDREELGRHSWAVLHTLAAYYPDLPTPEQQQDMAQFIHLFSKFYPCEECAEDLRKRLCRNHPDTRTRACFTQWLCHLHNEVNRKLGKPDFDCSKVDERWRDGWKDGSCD

Q: Which EC50 [1] does the source give for `Cc1cc(C(=O)CSc2nnnn2C(C)(C)C)c(C)n1Cc1ccccc1` here?
A: > 30 µM (not active)

Q: Which AC50 [2] does the source give for `COC(=O)c1sc2nc(-c3ccco3)ccc2c1N` here?
A: 2.84 µM (active)

Q: What about the IC50 [3] of the same molecule?
A: 34.7 µM (not active)

Q: What about the IC50 [4] of the same molecule?
A: > 50 µM (not active)

Q: What does the source list for `N#CC1=C(SCC(=O)Nc2cccc3cccnc23)NC(=O)C(C#N)C12CCCCC2` (stereo unspecified)?
A: EC50 [5]: > 20 µM (not active); IC50 [3]: > 50 µM (not active); IC50 [6]: > 50 µM (not active); EC50 [7]: > 20 µM (not active)

Q: Which IC50 [8] does the source give for `O=C(O)c1ccc(N(c2ccccc2)c2ccccc2)cc1` here?
A: > 35 µM (not active)

Q: What about the IC50 [9] of the same molecule?
A: 60.3 µM (active)

Q: And the IC50 [10]?
A: 31.9 µM (not active)
